US7345065B2, “Methods and compositions for alleviating pain” (Allergan, Inc., priority 2002, dated 2008)

Experiments:
[1] = tested on: α-2B heterozygous (−/+) and homozygous (−/−) knockout mice; assay: Sulprostone sensitized pain (allodynia), α-2B knockout mice; assay type: in vivo, mouse; details: intraperitoneal; heterozygous and homozygous α-2B knockout; clonidine 500 ug/kg, Compound 3 100 ug/kg
[2] = tested on: sulprostone-sensitized wild type mice; assay: Sulprostone sensitized pain (allodynia), wild type mice; assay type: in vivo, mouse; details: intraperitoneal, wild type mice; clonidine 500 ug/kg, Compound 3 100 ug/kg
Method: Non-specific α-adrenergic agonists were assayed in α-2A receptor deficient (“knockout”) mice (Hein et al., supra, 1999) using a mouse model of sulprostone sensitized pain in which allodynia is evoked by intrathecal administration of a selective prostaglandin E2 receptor agonist to conscious mice essentially as described in Minami et al., Pain 57:217-223 (1994). In this model, the pain response to stroking the flank with a paint brush is scored eight times over a 35 minute period starting 15 minutes following spinal administration of sulprostone and intrathecal or intraperitoneal administration of drug or control vehicle. Sulprostone elicits a “pain” score of 12-13 on a 16-point scale.
Assays for allodynia in wild type and α-2A knockout mice were performed essentially according to the method of Yaksh and Harty, J. Pharmacology Exp. Ther. 244: 501-507 (1998). In brief, mice were divided into groups of 5-6 animals. Control mice were administered 5 ul DMSO while treated animals were injected with 5 ul DMSO containing various doses of the indicated agent. After intrathecal injection, each mouse was placed in an individual 13×8.5×13 cm Plexiglass enclosure with wood chips on the floor for observation. Allodynia was assessed once every five minutes over a 50 minute time period, with response recorded eight times in the 15 to 50 minute time frame. Allodynia was assessed by light stroking of the flank of the mice with a small paintbrush and ranked as follows: 0, no response; 1, mild squeaking with attempts to move away from the stroking probe; and 2, vigorous squeaking evoked by the stroking probe, biting at the probe and strong efforts to escape. The eight scores for each animal were added together, and the mean for the group determined to give an average total score.

mice = assay: Sedative effects in mice (exploratory activity, digicom analyzer chamber); assay type: in vivo, mouse; details: intraperitoneal, wild type mice; clonidine 500 ug/kg, Compound 3 100 ug/kg
Method: Sedative effects were analyzed by assessing exploratory behavior in a darkened chamber as follows. Mice were weighed, and test compound administered by intrathecal injection in a volume of 5 μl or by intraperitoneal injection in 1 ml/kg volume at the indicated dose. At predetermined time points corresponding with analgesia measurements 5 to 30 minutes following the injection, the animal's activity was determined automatically by placing the mouse in a digicom analyzer chamber (Omnitech Electronic; Columbus, Ohio). The digicom analyzer chamber contains photocell beams criss-crossing the box that are broken as the animal moves around; the chamber was modified for mice by raising the level of the floor. Computer analysis of total animal movement proceeded over a 5-minute time period. Any given animal was used at most twice for this protocol, as learned behavior can affect the data. All animals received at least two weeks rest between studies.

bovine α-1A = biological target: T1, bovine α-1A (Bos taurus, UniProt P18130); assay: RSAT assay, α-1A receptor; assay type: cell-based; details: NA = not active (EC50 ≧ 10,000)
T1 construct: expressed in transfected cells; host or cells: NIH-3T3
T1 sequence (P18130 1-466): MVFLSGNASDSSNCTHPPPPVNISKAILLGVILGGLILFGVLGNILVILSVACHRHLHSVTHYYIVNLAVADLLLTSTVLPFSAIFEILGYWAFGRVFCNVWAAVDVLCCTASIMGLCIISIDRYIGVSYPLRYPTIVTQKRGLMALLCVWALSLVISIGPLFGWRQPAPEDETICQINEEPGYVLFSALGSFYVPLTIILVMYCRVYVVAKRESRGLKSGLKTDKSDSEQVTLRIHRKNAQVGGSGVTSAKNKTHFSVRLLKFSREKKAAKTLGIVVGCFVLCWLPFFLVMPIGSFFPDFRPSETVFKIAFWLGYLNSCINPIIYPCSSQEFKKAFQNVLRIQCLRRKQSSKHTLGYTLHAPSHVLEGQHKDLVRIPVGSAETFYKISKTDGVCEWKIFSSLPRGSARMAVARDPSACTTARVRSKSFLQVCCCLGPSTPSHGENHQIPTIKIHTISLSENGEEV
Source text: Agonist and antagonist activity, including selectivity and specificity, can be characterized using any of a variety of routine assays, including, without limitation, Receptor Selection and Amplification Technology (RSAT) assays (Messier et al., Pharmacol. Toxicol. 76:308-11 (1995); Conklin et al., Nature 363:274-6 (1993)); cyclic AMP assays (Shimizu et al., J. Neurochem. 16:1609-1619 (1969)); and cytosensor microphysiometry assays (Neve et al., J. Biol. Chem. 267:25748-25753 (1992)). Such assays generally are performed using cells that naturally express only a single α-adrenergic receptor subtype, or using transfected cells expressing a single recombinant α-adrenergic receptor subtype. […]
The RSAT assay measures receptor-mediated loss of contact inhibition resulting in selective proliferation of receptor-containing cells in a mixed population of confluent cells. The increase in cell number is assessed with an appropriate detectable marker gene such as β-galactosidase, if desired, in a high throughput or ultra high throughput assay format. […]
As an example, an RSAT assay can be performed essentially as follows. […] After washing with phosphate-buffered saline, β-galactosidase activity is determined by adding 200 μl of chromogenic substrate (3.5 mM O-nitrophenyl-β-D-galactopyranoside/0.5% NP-40 in phosphate buffered saline), incubating overnight at 30°, and measuring optical density at 420 nm. […]

Row | EC50 (bovine α-1A) [nM] | Compound | analgesic effect in α-2B knockout mice [1] | sulprostone-induced tactile allodynia [2] | concomitant sedation (mice)
1 | > 2000 | O=C1c2ccccc2CCC1Cc1c[nH]c(=S)[nH]1 (racemic) [Compound 3] | not analgesic | alleviated sulprostone-induced tactile allodynia | without concomitant sedation
2 | 1710 | S=c1[nH]cc(CC2CC=CC2)[nH]1 [Compound 11] |  |  | 
